Measured values taken from patent publication US20210401863A1, “TREATMENT AND PREVENTION OF NEISSERIA GONORRHOEAE INFECTION USING CMP-ACTIVATED NONULOSONATE ANALOG COMPOUNDS” (NATIONAL RESEARCH COUNCIL OF CANADA, priority 2015, published 2021).

What was measured:
purified human FH = test: Factor H (FH) binding to gonococci by flow cytometry; type: cell-based; conditions: F62 ΔlgtD grown with 20 μg/mL CMP-NulO, human FH 20 μg/mL
Experimental: FIG. 1: CMP-KDN serves as a substrate for gonococcal LOS and incorporation of KDN on gonococcal lacto-N-neotetraose LOS enhances factor H (FH) binding. A. Incorporation of KDN by gonococci. Gonococcal strain F62 ΔlgtD (expresses lacto-N-neotetraose (LNnT) from Hepl) was grown in media containing CMP-KDN (20 μg/mL) and binding of mAb 3F11 was measured by flow cytometry. mAb 3F11 binds only to […] LNnT; substitution of the terminal Gal of LNnT, for example with a NulO, will decrease mAb 3F11 binding. Approximately 5×10^7 bacteria were incubated with mAb 3F11 tissue culture supernatants for 15 minutes at 37° C. Binding of mAb 3F11 was disclosed with anti-mouse IgM FITC (Sigma; dilution of 1:100). Bacteria grown in CMP-Neu5Ac or in media alone were used as positive and negative controls for sialylation, respectively. A representative histogram is shown in the upper panel. […] B. Factor H (FH) binding to gonococci grown in CMP-KDN. Approximately 5×10^7 bacteria grown in media alone (no sialic acid), media plus CMP-Neu5Ac (20 μg/mL; positive control for FH binding) or in media containing CMP-KDN (20 μg/mL) were incubated with purified human FH (20 μg/mL) in HBSS** for 15 minutes at 37° C. and bound FH was detected with affinity isolated goat anti-human FH followed by anti-goat IgG FITC (Sigma; 1:100 dilution). A representative histogram is shown in the upper panel. […]

[1] = biological target: T1, gonococcal LOS sialyltransferase (Lst) (Neisseria gonorrhoeae, UniProt P72074); test: mAb 3F11 binding by flow cytometry (incorporation of NulO on LNnT LOS by Lst); type: cell-based, N. gonorrhoeae F62 ΔlgtD; conditions: F62 ΔlgtD grown in media with 20 μg/mL CMP-NulO
T1 construct: CMP-KDN served as a substrate for gonococcal Lst in the context of live bacteria; endogenous in cells; host or cells: N. gonorrhoeae F62 ΔlgtD (live bacteria)
T1 sequence (P72074 whole entry): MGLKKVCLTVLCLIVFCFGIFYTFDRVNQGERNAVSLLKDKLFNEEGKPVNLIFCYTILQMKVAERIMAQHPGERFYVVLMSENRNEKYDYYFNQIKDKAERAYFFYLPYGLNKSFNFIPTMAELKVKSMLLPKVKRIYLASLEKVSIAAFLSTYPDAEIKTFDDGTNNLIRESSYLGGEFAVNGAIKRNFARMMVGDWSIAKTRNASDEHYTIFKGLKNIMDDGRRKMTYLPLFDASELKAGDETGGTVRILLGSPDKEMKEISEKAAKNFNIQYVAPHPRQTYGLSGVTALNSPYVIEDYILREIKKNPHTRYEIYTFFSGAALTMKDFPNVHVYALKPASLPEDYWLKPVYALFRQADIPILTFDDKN
Experimental: FIG. 1: CMP-KDN serves as a substrate for gonococcal LOS and incorporation of KDN on gonococcal lacto-N-neotetraose LOS enhances factor H (FH) binding. A. Incorporation of KDN by gonococci. Gonococcal strain F62 ΔlgtD (expresses lacto-N-neotetraose (LNnT) from Hepl) was grown in media containing CMP-KDN (20 μg/mL) and binding of mAb 3F11 was measured by flow cytometry. mAb 3F11 binds only to […] LNnT; substitution of the terminal Gal of LNnT, for example with a NulO, will decrease mAb 3F11 binding. Approximately 5×10^7 bacteria were incubated with mAb 3F11 tissue culture supernatants for 15 minutes at 37° C. Binding of mAb 3F11 was disclosed with anti-mouse IgM FITC (Sigma; dilution of 1:100). Bacteria grown in CMP-Neu5Ac or in media alone were used as positive and negative controls for sialylation, respectively. A representative histogram is shown in the upper panel. […] B. Factor H (FH) binding to gonococci grown in CMP-KDN. Approximately 5×10^7 bacteria grown in media alone (no sialic acid), media plus CMP-Neu5Ac (20 μg/mL; positive control for FH binding) or in media containing CMP-KDN (20 μg/mL) were incubated with purified human FH (20 μg/mL) in HBSS** for 15 minutes at 37° C. and bound FH was detected with affinity isolated goat anti-human FH followed by anti-goat IgG FITC (Sigma; 1:100 dilution). A representative histogram is shown in the upper panel.
FIG. 3: CMP-KDN7N3 serves as a substrate for gonococcal Lst resulting in incorporation of KDN7N3 on gonococcal lacto-N-neotetraose (LNnT) LOS—Incorporation of KDN7N3 by gonococci. Gonococcal strain F62ΔlgtD (expresses lacto-N-neotetraose (LNnT) from Hepl) was grown in media containing CMP-KDN7N3 (20 μg/mL) and binding of mAb 3F11 was measured by flow cytometry. mAb 3F11 binds only to […] LNnT; substitution of the terminal Gal of LNnT, for example with a NulO, will decrease mAb 3F11 binding. Approximately 5×10^7 bacteria were incubated with mAb 3F11 tissue culture supernatants for 15 minutes at 37° C. Binding of mAb 3F11 was disclosed with anti-mouse IgM FITC (Sigma; dilution of 1:100). […]

## Nc1ccn([C@@H]2O[C@H](COP(=O)(O)O[C@@]3(C(=O)O)CC(O)[C@@H](O)C([C@H](O)[C@H](O)CO)O3)C(O)C2O)c(=O)n1 (stereo partly drawn) [CMP-KDN, cytidine 5′-monophospho-3-deoxy-D-glycero-D-galacto-nonulosonic acid]
Purified human FH
  fH binding to bacteria: half of that observed for Neu5Ac
[1]
  binding of mAb 3F11 (use as substrate by gonococcal Lst): decreased binding of mAb 3F11 similarly
